According to patent US20180370927A1, “MICROBIOCIDAL OXADIAZOLE DERIVATIVES” (SYNGENTA PARTICIPATIONS AG, priority 2015, published 2018):
Like-named read-outs stand apart in the source and are kept apart here. One block for each compound: values may come before it.

Assays:
[1] = test system: Glomerella lacenarium (Colletotrichum lacenarium); test: Glomerella lacenarium (Colletotrichum lacenarium) liquid culture / cucumber / preventative (anthracnose); type: cell-based; conditions: read-out: disease control (inhibition of growth, photometric) compared to untreated control
Method in brief: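 Cryostored conidia in potato dextrose broth added to DMSO compound solution in microtiter plates, incubated at 24° C. Growth inhibition read photometrically 3 to 4 days after application, as percent control versus untreated check; compounds tested at 20 ppm.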

Phakopsora pachyrhizi = Phakopsora pachyrhizi / soybean / leaf disc preventative (Asian soybean rust); type: in vivo; conditions: foliar, 200 ppm in the applied formulation, soybean leaf disks, assessed 12 to 14 days after application, read-out: disease control compared to untreated control leaf disks
Method in brief: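 Soybean leaf discs on water agar were sprayed with formulated compound diluted in water, then inoculated one day later with spore suspension on the lower leaf surface. Held 24-36 h dark at 20° C., 75% RH, then 12 h light/day; percent disease control versus untreated scored 12 to 14 days after application.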

[2] = test system: Puccinia recondita f. Sp. Tritici; test: Puccinia recondita f. sp. tritici / wheat / leaf disc curative (brown rust); type: in vivo; conditions: foliar, read-out: disease control compared to untreated control leaf disks
Method in brief: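 Wheat cv. Kanzler leaf segments on agar were inoculated with spores, kept dark at 19° C, 75% RH, then sprayed with diluted formulated compound 1 day after inoculation (curative). Incubation continued at 19° C, 75% RH, 12 h light/12 h dark, with percent disease control versus untreated scored 6 to 8 days after application.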

[3] = test system: Puccinia recondita f. Sp. Tritici; test: Puccinia recondita f. sp. tritici / wheat / leaf disc preventative (brown rust); type: in vivo; conditions: foliar, read-out: disease control compared to untreated control leaf disks
Method in brief: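 Wheat cv. Kanzler leaf segments on agar sprayed with formulated compound in water, inoculated with rust spores 1 day later. Incubated at 19° C, 75% rh, 12 h light/12 h dark; percent disease control versus untreated scored 7 to 9 days after application; tested at 200 ppm.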

[4] = 20 ppm in the applied formulation, liquid culture in PDB, 24° C., 3 to 4 days after application
[5] = 200 ppm in the applied formulation, wheat leaf segments, curative (applied 1 day after inoculation), assessed 6 to 8 days after application
[6] = 200 ppm in the applied formulation, wheat leaf segments, preventative, assessed 7 to 9 days after application

melting point: 79 to 89 °C
Structure (SMILES): Cc1cc(-c2noc(C(F)(F)F)n2)ccc1NC(=O)C(=O)N(C)C [Compound 4.37, N′,N′-dimethyl-N-[2-methyl-4-[5-(trifluoromethyl)-1,2,4-oxadiazol-3-yl]phenyl]oxamide]
inhibition at 20 ppm [1, 4]: ≥ 80%
pest or weed control at 200 ppm [2, 5]: ≥ 80%
pest or weed control at 200 ppm [3, 6]: ≥ 80%
pest or weed control at 200 ppm (Phakopsora pachyrhizi): ≥ 80%

melting point: 123 to 125 °C
Structure (SMILES): CON1CCC(N(C)C(=O)C(=O)NCc2ccc(-c3noc(C(F)(F)F)n3)cc2)CC1 [Compound 4.44, N′-(1-methoxy-4-piperidyl)-N′-methyl-N-[[4-[5-(trifluoromethyl)-1,2,4-oxadiazol-3-yl]phenyl]methyl] oxamide]
inhibition at 20 ppm [1, 4]: ≥ 80%
pest or weed control at 200 ppm [2, 5]: ≥ 80%
pest or weed control at 200 ppm [3, 6]: ≥ 80%
pest or weed control at 200 ppm (Phakopsora pachyrhizi): ≥ 80%

melting point: 87.7 to 88.8 °C
Structure (SMILES): CNC(=O)C(=O)N(Cc1ccc(-c2noc(C(F)(F)F)n2)cc1)OC [Compound 4.35, N′-methoxy-N-methyl-N′-[[4-[5-(trifluoromethyl)-1,2,4-oxadiazol-3-yl]phenyl]methyl] oxamide]
inhibition at 20 ppm [1, 4]: ≥ 80%
pest or weed control at 200 ppm [2, 5]: ≥ 80%
pest or weed control at 200 ppm [3, 6]: ≥ 80%
pest or weed control at 200 ppm (Phakopsora pachyrhizi): ≥ 80%

melting point: 120 to 125 °C
Structure (SMILES): CN(Cc1ccc(-c2noc(C(F)(F)F)n2)cc1)C(=O)C(N)=O [Compound 4.30, N′-methyl-N′-[[4-[5-(trifluoromethyl)-1,2,4-oxadiazol-3-yl]phenyl]methyl] oxamide]
inhibition at 20 ppm [1, 4]: ≥ 80%
pest or weed control at 200 ppm [2, 5]: ≥ 80%
pest or weed control at 200 ppm [3, 6]: ≥ 80%
pest or weed control at 200 ppm (Phakopsora pachyrhizi): ≥ 80%

melting point: 126 to 130 °C
Structure (SMILES): COCCNC(=O)C(=O)Nc1ccc(-c2noc(C(F)(F)F)n2)cc1C [Compound 4.38, N-(2-methoxyethyl)-N′-[2-methyl-4-[5-(trifluoromethyl)-1,2,4-oxadiazol-3-yl]phenyl] oxamide]
inhibition at 20 ppm [1, 4]: ≥ 80%
pest or weed control at 200 ppm [2, 5]: ≥ 80%
pest or weed control at 200 ppm [3, 6]: ≥ 80%
pest or weed control at 200 ppm (Phakopsora pachyrhizi): ≥ 80%

melting point: 104 to 108 °C
Structure (SMILES): O=C(NCc1ccc(-c2noc(C(F)(F)F)n2)cc1)C(=O)N1CCCCC1 [Compound 4.40, 2-oxo-2-(1-piperidyl)-N-[[4-[5-(trifluoromethyl)-1,2,4-oxadiazol-3-yl]phenyl]methyl] acetamide]
inhibition at 20 ppm [1, 4]: ≥ 80%
pest or weed control at 200 ppm [2, 5]: ≥ 80%
pest or weed control at 200 ppm [3, 6]: ≥ 80%
pest or weed control at 200 ppm (Phakopsora pachyrhizi): ≥ 80%

Further lines, the compound ahead of its results:

Structure (SMILES): CO/N=C(\C#N)C(=O)NCc1ccc(-c2noc(C(F)(F)F)n2)cc1 [Compound 2.13, (1E)-N-methoxy-2-oxo-2-[[4-[5-(trifluoromethyl)-1,2,4-oxadiazol-3-yl]phenyl]methylamino] acetimidoyl cyanide]
inhibition at 20 ppm [1]: ≥ 80%
melting point: 130 to 131 °C

Structure (SMILES): O=C(O)C(=O)NCc1ccc(-c2noc(C(F)(F)F)n2)cc1 [Compound 3.8, 2-oxo-2-[[4-[5-(trifluoromethyl)-1,2,4-oxadiazol-3-yl]phenyl]methylamino]acetic acid]
pest or weed control at 200 ppm (Phakopsora pachyrhizi): ≥ 80%
melting point: 162 to 173 °C

Structure (SMILES): CO/N=C(\C#N)C(=O)N(Cc1ccc(-c2noc(C(F)(F)F)n2)cc1)OC [Compound 2.14, (1E)-N-methoxy-2-[methoxy-[[4-[5-(trifluoromethyl)-1,2,4-oxadiazol-3-yl]phenyl]methyl]amino]-2-oxo-acetimidoyl cyanide]
inhibition at 20 ppm [1]: ≥ 80%
pest or weed control at 200 ppm [2]: ≥ 80%
pest or weed control at 200 ppm [3]: ≥ 80%
melting point: 67 to 68 °C

Structure (SMILES): O=C(NCc1ccc(-c2noc(C(F)(F)F)n2)cc1)C(=O)OC1CCSC1 (centres unmarked) [Compound 3.6, tetrahydrothiophen-3-yl 2-oxo-2-[[4-[5-(trifluoromethyl)-1,2,4-oxadiazol-3-yl]phenyl]methylamino]acetate]
inhibition at 20 ppm [1, 4]: ≥ 80%
pest or weed control at 200 ppm [3, 6]: ≥ 80%
melting point: 102 to 105 °C

Structure (SMILES): CO/N=C(\C)C(=O)NCc1ccc(-c2noc(C(F)(F)F)n2)cc1 [Compound 2.9, (2E)-2-methoxyimino-N-[[4-[5-(trifluoromethyl)-1,2,4-oxadiazol-3-yl]phenyl]methyl] propanamide]
inhibition at 20 ppm [1, 4]: ≥ 80%
pest or weed control at 200 ppm [2, 5]: ≥ 80%
pest or weed control at 200 ppm [3, 6]: ≥ 80%
pest or weed control at 200 ppm (Phakopsora pachyrhizi): ≥ 80%
melting point: 75.7 to 76.2 °C

Structure (SMILES): CCOCCOC(=O)C(=O)NCc1ccc(-c2noc(C(F)(F)F)n2)cc1 [Compound 3.4, 2-ethoxyethyl 2-oxo-2-[[4-[5-(trifluoromethyl)-1,2,4-oxadiazol-3-yl]phenyl]methylamino]acetate]
inhibition at 20 ppm [1, 4]: ≥ 80%
pest or weed control at 200 ppm [3, 6]: ≥ 80%
melting point: 112 to 114 °C

Structure (SMILES): CC1CCC(OC(=O)C(=O)NCc2ccc(-c3noc(C(F)(F)F)n3)cc2)C1 (centres unmarked) [Compound 3.5, (3-methylcyclopentyl) 2-oxo-2-[[4-[5-(trifluoromethyl)-1,2,4-oxadiazol-3-yl]phenyl]methylamino]acetate]
inhibition at 20 ppm [1, 4]: ≥ 80%
pest or weed control at 200 ppm [3, 6]: ≥ 80%
melting point: 112 to 116 °C

Structure (SMILES): CC(=O)C(=O)N(C)Cc1ccc(-c2noc(C(F)(F)F)n2)cc1 [Compound 1.20, N-methyl-2-oxo-N-[[4-[5-(trifluoromethyl)-1,2,4-oxadiazol-3-yl]phenyl]methyl]propanamide]
inhibition at 20 ppm [1, 4]: ≥ 80%
pest or weed control at 200 ppm [2, 5]: ≥ 80%
pest or weed control at 200 ppm [3, 6]: ≥ 80%
pest or weed control at 200 ppm (Phakopsora pachyrhizi): ≥ 80%

Structure (SMILES): O=C(NCc1c(F)cc(-c2noc(C(F)(F)F)n2)cc1F)C(=O)c1ccco1 [Compound 1.88, N-[[2,6-difluoro-4-[5-(trifluoromethyl)-1,2,4-oxadiazol-3-yl]phenyl]methyl]-2-(2-furyl)-2-oxo-acetamide]
inhibition at 20 ppm [1, 4]: ≥ 80%
pest or weed control at 200 ppm [2, 5]: ≥ 80%
pest or weed control at 200 ppm [3, 6]: ≥ 80%
pest or weed control at 200 ppm (Phakopsora pachyrhizi): ≥ 80%

Structure (SMILES): C#CCN(Cc1ccc(-c2noc(C(F)(F)F)n2)cc1)C(=O)C(=O)CCC [Compound 1.5, 2-oxo-N-prop-2-ynyl-N-[[4-[5-(trifluoromethyl)-1,2,4-oxadiazol-3-yl]phenyl]methyl]pentanamide]
inhibition at 20 ppm [1, 4]: ≥ 80%
pest or weed control at 200 ppm [2, 5]: ≥ 80%
pest or weed control at 200 ppm [3, 6]: ≥ 80%
pest or weed control at 200 ppm (Phakopsora pachyrhizi): ≥ 80%

Structure (SMILES): NC(=O)C(=O)N(Cc1ccc(-c2noc(C(F)(F)F)n2)cc1)C1COC1 [Compound 4.90, N′-(oxetan-3-yl)-N′-[[4-[5-(trifluoromethyl)-1,2,4-oxadiazol-3-yl]phenyl]methyl] oxamide]
inhibition at 20 ppm [1, 4]: ≥ 80%
pest or weed control at 200 ppm [2, 5]: ≥ 80%
pest or weed control at 200 ppm [3, 6]: ≥ 80%
pest or weed control at 200 ppm (Phakopsora pachyrhizi): ≥ 80%

Structure (SMILES): CCN(Cc1ccc(-c2noc(C(F)(F)F)n2)cc1)C(=O)C(=O)N(C)C [Compound 4.27, N′-ethyl-N,N-dimethyl-N′-[[4-[5-(trifluoromethyl)-1,2,4-oxadiazol-3-yl]phenyl]methyl] oxamide]
inhibition at 20 ppm [1, 4]: ≥ 80%
pest or weed control at 200 ppm [2, 5]: ≥ 80%
pest or weed control at 200 ppm [3, 6]: ≥ 80%
pest or weed control at 200 ppm (Phakopsora pachyrhizi): ≥ 80%

Structure (SMILES): CCN(Cc1ccc(-c2noc(C(F)(F)F)n2)cc1)C(=O)C(N)=O [Compound 4.28, N′-ethyl-N′-[[4-[5-(trifluoromethyl)-1,2,4-oxadiazol-3-yl]phenyl]methyl] oxamide]
inhibition at 20 ppm [1, 4]: ≥ 80%
pest or weed control at 200 ppm [2, 5]: ≥ 80%
pest or weed control at 200 ppm [3, 6]: ≥ 80%
pest or weed control at 200 ppm (Phakopsora pachyrhizi): ≥ 80%

Structure (SMILES): CNC(=O)C(=O)NCc1ccc(-c2noc(C(F)(F)F)n2)cc1 [Compound 4.47, N-methyl-N′-[[4-[5-(trifluoromethyl)-1,2,4-oxadiazol-3-yl]phenyl]methyl] oxamide]
inhibition at 20 ppm [1, 4]: ≥ 80%
pest or weed control at 200 ppm [2, 5]: ≥ 80%
pest or weed control at 200 ppm [3, 6]: ≥ 80%
pest or weed control at 200 ppm (Phakopsora pachyrhizi): ≥ 80%

Structure (SMILES): CCOC(=O)C(=O)NCc1ccc(-c2noc(C(F)(F)F)n2)cc1 [Compound 3.9, ethyl 2-oxo-2-[[4-[5-(trifluoromethyl)-1,2,4-oxadiazol-3-yl]phenyl]methylamino] acetate]
inhibition at 20 ppm [1, 4]: ≥ 80%
pest or weed control at 200 ppm [3, 6]: ≥ 80%
pest or weed control at 200 ppm (Phakopsora pachyrhizi): ≥ 80%
melting point: 112 to 116 °C

Structure (SMILES): O=C(NCc1c(F)cc(-c2noc(C(F)(F)F)n2)cc1F)C(=O)c1cccs1 [Compound 1.70, N-[[2,6-difluoro-4-[5-(trifluoromethyl)-1,2,4-oxadiazol-3-yl]phenyl]methyl]-2-oxo-2-(2-thienyl)acetamide]
inhibition at 20 ppm [1, 4]: ≥ 80%
pest or weed control at 200 ppm [2, 5]: ≥ 80%
pest or weed control at 200 ppm [3, 6]: ≥ 80%
pest or weed control at 200 ppm (Phakopsora pachyrhizi): ≥ 80%

Structure (SMILES): CCCN(Cc1ccc(-c2noc(C(F)(F)F)n2)cc1)C(=O)C(=O)CC [Compound 1.31, 2-oxo-N-propyl-N-[[4-[5-(trifluoromethyl)-1,2,4-oxadiazol-3-yl]phenyl]methyl]butanamide]
inhibition at 20 ppm [1, 4]: ≥ 80%
pest or weed control at 200 ppm [2, 5]: ≥ 80%
pest or weed control at 200 ppm [3, 6]: ≥ 80%
pest or weed control at 200 ppm (Phakopsora pachyrhizi): ≥ 80%
